Where a name gives a salt, the structure may show the parent alone.

For this test, the target named is T1, h5-HT5A receptor (Homo sapiens, UniProt P47898).
T1 construct: expressed in transfected cells; host or cells: HEK293
T1 sequence (P47898 whole entry): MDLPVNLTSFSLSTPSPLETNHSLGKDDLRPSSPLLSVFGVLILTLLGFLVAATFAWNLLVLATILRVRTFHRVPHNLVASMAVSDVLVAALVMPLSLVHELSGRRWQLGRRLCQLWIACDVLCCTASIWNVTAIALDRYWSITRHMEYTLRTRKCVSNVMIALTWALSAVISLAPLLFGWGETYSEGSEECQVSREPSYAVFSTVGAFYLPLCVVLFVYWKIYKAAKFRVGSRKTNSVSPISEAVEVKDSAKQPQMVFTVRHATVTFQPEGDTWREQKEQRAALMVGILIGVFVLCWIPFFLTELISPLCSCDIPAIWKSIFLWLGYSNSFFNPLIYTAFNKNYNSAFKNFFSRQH
Put plainly: [3H]5-CT binding assay h5-HT5A. The settings on record: membranes from HEK293 cells expressing h5-HT5A, 2.5 nM [3H]5-CT; read-out: Binding affinity 5-HT5A (Ki). The gist of the method:
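Membranes from HEK293 cells stably expressing h5-HT5A incubated with 2.5 nM [3H]5-CT and compound in 100 mM Tris-HCl pH 7.7, 1 mM EDTA, 75 min at 30° C. Nonspecific binding with 10 μM methiothepine; filtration and scintillation counting give Ki or IC50.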
Consider `COc1ccccc1CN=C(N)Nc1nc(-c2ccccc2)ns1` [Example 106, N″-(2-methoxybenzyl)-N-(3-phenyl-1,2,4-thiadiazole-5-yl)guanidine (2E)-But-2-endioate], for which the Ki is more than 500 nM.
For `COc1cccc(OC)c1CNC(=N)Nc1nc(-c2ccc(C(F)(F)F)cc2)cs1` [Example 107, N-(2,6-dimethoxybenzyl)-N′-{4-[4-(trifluoromethyl)phenyl]-1,3-thiazole-2-yl}guanidine] the value was 50 to 500 nM; for `COc1cccc(OC)c1CNC(=N)Nc1nc(-c2cccc(C(F)(F)F)c2)cs1` [Example 108, N-(2,6-dimethoxybenzyl)-N′-{4-[3-(trifluoromethyl)phenyl]-1,3-thiazole-2-yl}guanidine], more than 500 nM.
For `COc1cccc(OC)c1CNC(=N)Nc1nc(-c2ccc(OC(F)F)cc2)cs1` [Example 109, N-{4-[4-(difluoromethoxy)phenyl]-1,3-thiazole-2-yl}-N′-(2,6-dimethoxybenzyl)guanidine hydrobromide] the value was 50 to 500 nM; for `COc1cccc(OC)c1CNC(=N)Nc1nc(-c2ccc(N(C)C)cc2)cs1` [Example 110, N-(2,6-dimethoxybenzyl)-N′-{4-[4-(dimethylamino)phenyl]-1,3-thiazole-2-yl}guanidine hydrobromide], less than 50 nM.
Then `COc1cc(F)ccc1-c1csc(NC(=N)NCc2c(OC)cccc2OC)n1` [Example 111, N-(2,6-dimethoxybenzyl)-N′-[4-(4-fluoro-2-methoxyphenyl)-1,3-thiazole-2-yl]guanidine], with less than 50 nM.
Take `COc1ccc(F)cc1-c1csc(NC(=N)NCc2c(OC)cccc2OC)n1` [Example 112, hydrobromide]: the Ki is less than 50 nM.
As to `COc1cccc(OC)c1CNC(=N)Nc1nc(-c2c(OC)cccc2OC)cs1` [Example 113, N-(2,6-dimethoxybenzyl)-N′-[4-(2,6-dimethoxyphenyl)-1,3-thiazole-2-yl]guanidine], the Ki was less than 50 nM.
Consider `COc1cccc(OC)c1CNC(=N)Nc1nc(-c2ccc(F)c3ccccc23)cs1` [Example 114, N-(2,6-dimethoxybenzyl)-N′-[4-(4-fluoro-1-naphthyl)-1,3-thiazole-2-yl]guanidine], for which the Ki is less than 50 nM.
Then `COc1cccc(OC)c1CNC(=N)Nc1nc(-c2ccc3c(c2)CCO3)cs1` [Example 115, N-[4-(2,3-dihydro-1-benzofuran-5-yl)-1,3-thiazole-2-yl]-N′-(2,6-dimethoxybenzyl)guanidine], with less than 50 nM; and `COc1cccc(OC)c1CNC(=N)Nc1nc(-c2ccc(F)cc2Cl)cs1` [Example 116, N-[4-(2-chloro-4-fluorophenyl)-1,3-thiazole-2-yl]-N′-(2,6-dimethoxybenzyl)guanidine], with less than 50 nM; and `COc1cccc(OC)c1CNC(=N)Nc1nc(-c2ccco2)cs1` [Example 117, N-(2,6-dimethoxybenzyl)-N′-[4-(2-furyl)-1,3-thiazole-2-yl]guanidine hydrobromide], with less than 50 nM.
Regarding `COc1cccc(OC)c1CNC(=N)Nc1nc(-c2ccc(F)cc2)c(C)s1` [Example 118, N-(2,6-dimethoxybenzyl)-N′-[4-(4-fluorophenyl)-5-methyl-1,3-thiazole-2-yl]guanidine], the Ki was less than 50 nM.
`COc1cccc(OC)c1CNC(=N)Nc1nc(-c2c(Cl)cccc2Cl)cs1` [Example 119, N-[4-(2,6-dichlorophenyl)-1,3-thiazole-2-yl]-N′-(2,6-dimethoxybenzyl)guanidine]: the Ki was less than 50 nM.
For `COc1cccc(OC)c1CNC(=N)Nc1nc(C2CCCN2C(=O)OC(C)(C)C)cs1` (stereo not shown) [Example 120, tert-butyl 2-(2-{[[(2,6-dimethoxybenzyl)amino](imino)methyl]amino}-1,3-thiazole-4-yl)pyrrolidine-1-carboxylate] the value was 50 to 500 nM.
Regarding `COc1cccc(OC)c1CNC(=N)Nc1nc(-c2cc(C)cs2)cs1` [Example 121, N-(2,6-dimethoxybenzyl)-N′-[4-(4-methyl-2-thienyl)-1,3-thiazole-2-yl]guanidine], the Ki is less than 50 nM.
Regarding `COc1cccc(OC)c1CNC(=N)Nc1nc(-c2ncccn2)cs1` [Example 122, N-(2,6-dimethoxybenzyl)-N′-(4-pyrimidine-2-yl-1,3-thiazole-2-yl)guanidine hydrobromide], the Ki is less than 50 nM.
Then `COc1cccc(OC)c1CNC(=N)Nc1nc(-c2ccc(Cl)cn2)cs1` [Example 123, N-[4-(5-chloropyridine-2-yl)-1,3-thiazole-2-yl]-N′-(2,6-dimethoxybenzyl)guanidine acetate], with less than 50 nM; and `COc1cccc(OC)c1CNC(=N)Nc1nc(-c2cc(Cl)cs2)cs1` [Example 124, N-[4-(4-chloro-2-thienyl)-1,3-thiazole-2-yl]-N′-(2,6-dimethoxybenzyl)guanidine], with less than 50 nM; and `COc1cccc(OC)c1CNC(=N)Nc1nc(CNC(=O)OC(C)(C)C)cs1` [Example 125, tert-butyl [(2-{[[(2,6-dimethoxybenzyl)amino](imino)methyl]amino}-1,3-thiazole-4-yl)methyl]carbamate], with less than 50 nM.
As for `COc1cccc(OC)c1CNC(=N)Nc1nc(-c2ncc(Cl)cc2Cl)cs1` [Example 126, N-[4-(3,5-dichloropyridine-2-yl)-1,3-thiazole-2-yl]-N′-(2,6-dimethoxybenzyl)guanidine], the Ki was less than 50 nM.
Consider `COc1cccc(OC)c1CNC(=N)Nc1nc2c(s1)CCc1ccccc1-2` [Example 127, N-(4,5-dihydronaphtho[1,2-d][1,3]thiazole-2-yl)-N′-(2,6-dimethoxybenzyl)guanidine], for which the inhibition constant Ki is less than 50 nM.
For `COc1cccc(OC)c1CNC(=N)Nc1ncc(-c2ccc(F)cc2)s1` [Example 128, N-(2,6-dimethoxybenzyl)-N′-[5-(4-fluorophenyl)-1,3-thiazole-2-yl]guanidine] the value was less than 50 nM.
Then `COc1ccc(F)cc1CNC(=N)Nc1nc(-c2ccccc2)cs1` [Example 129, N-(5-fluoro-2-methoxybenzyl)-N′-(4-phenyl-1,3-thiazole-2-yl)guanidine], with 50 to 500 nM.
For `COc1ccc(F)cc1CNC(=N)Nc1nc(C)cs1` [Example 130, N-(5-fluoro-2-methoxybenzyl)-N′-(4-methyl-1,3-thiazole-2-yl)guanidine fumarate] the value was 50 to 500 nM.
On to `COc1cccc(OC)c1CNC(=N)Nc1nc(C(C)C)cs1` [Example 131, N-(2,6-dimethoxybenzyl)-N′-(4-isopropyl-1,3-thiazole-2-yl)guanidine], for which the Ki is less than 50 nM.
Regarding `COc1cccc(Cl)c1CNC(=N)Nc1nc(-c2ccccc2)cs1` [Example 132, N-(2-chloro-6-methoxybenzyl)-N′-(4-phenyl-1,3-thiazole-2-yl)guanidine], the Ki is less than 50 nM.
Turning to `COc1cccc(Cl)c1CNC(=N)Nc1nc(-c2ccccn2)cs1` [Example 133, N-(2-chloro-6-methoxybenzyl)-N′-(4-pyridine-2-yl-1,3-thiazole-2-yl)guanidine], the Ki was less than 50 nM.
Then `COc1cccc(Cl)c1CNC(=N)Nc1nc(-c2ccc(Cl)cn2)cs1` [Example 134, N-(2-chloro-6-methoxybenzyl)-N′-[4-(5-chloropyridine-2-yl)-1,3-thiazole-2-yl]guanidine], with 50 to 500 nM.
Regarding `COc1cccc(Cl)c1CNC(=N)Nc1nc(-c2ncccn2)cs1` [Example 135, N-(2-chloro-6-methoxybenzyl)-N′-(4-pyrimidine-2-yl-1,3-thiazole-2-yl)guanidine], the Ki is less than 50 nM.
Take `COc1cccc(Cl)c1CNC(=N)Nc1nc(-c2ccc(F)cc2)cs1` [Example 136, N-(2-chloro-6-methoxybenzyl)-N′-[4-(4-fluorophenyl)-1,3-thiazole-2-yl]guanidine]: the Ki lay in the range of 50 to 500 nM.
For `COc1cccc(C)c1CNC(=N)Nc1nc(-c2ccc(Cl)cn2)cs1` [Example 137, N-[4-(5-chloropyridine-2-yl)-1,3-thiazole-2-yl]-N′-(2-methoxy-6-methylbenzyl)guanidine] the value was more than 500 nM; for `COc1cccc(C)c1CNC(=N)Nc1nc(-c2ccc(F)cc2)cs1` [Example 138, N-[4-(4-fluorophenyl)-1,3-thiazole-2-yl]-N′-(2-methoxy-6-methylbenzyl)guanidine], less than 50 nM; for `COc1cccc(C)c1CNC(=N)Nc1nc(-c2ncccn2)cs1` [Example 139, N-(2-methoxy-6-methylbenzyl)-N′-(4-pyrimidine-2-yl-1,3-thiazole-2-yl)guanidine], less than 50 nM.
For the compound `COc1cccc(C)c1CNC(=N)Nc1nc(-c2ccccn2)cs1` [Example 140, N-(2-methoxy-6-methylbenzyl)-N′-(4-pyridine-2-yl-1,3-thiazole-2-yl)guanidine], the Ki is less than 50 nM.
As to `COc1cccc(F)c1CNC(=N)Nc1nc(-c2ccc(F)cc2)cs1` [Example 141, N-(2-fluoro-6-methoxybenzyl)-N′-[4-(4-fluorophenyl)-1,3-thiazole-2-yl]guanidine], the Ki is 50 to 500 nM.
For the compound `COc1cccc(OC)c1CNC(=N)Nc1nc(-c2ccc(F)cc2O)cs1` [Example 142, N-(2,6-dimethoxybenzyl)-N′-[4-(4-fluoro-2-hydroxyphenyl)-1,3-thiazole-2-yl]guanidine], the Ki is less than 50 nM.
Then `COc1cccc(OC)c1CNC(=N)Nc1nc(Cc2ccc(F)cc2)cs1` [Example 143, N-(2,6-dimethoxybenzyl)-N′-[4-(4-fluorobenzyl)-1,3-thiazole-2-yl]guanidine], with less than 50 nM; and `COc1cccc(OC)c1CNC(=N)Nc1nc(-c2ccc(F)cn2)cs1` [Example 144, N-(2,6-dimethoxybenzyl)-N′-[4-(5-fluoropyridine-2-yl)-1,3-thiazole-2-yl]guanidine], with less than 50 nM; and `COc1cccc(OC)c1CNC(=N)Nc1nc(-c2ncc(F)cc2F)cs1` [Example 145, N-[4-(3,5-difluoropyridine-2-yl)-1,3-thiazole-2-yl]-N′-(2,6-dimethoxybenzyl)guanidine], with less than 50 nM.

Broadly, the Ki is a dissociation constant, usually derived from enzyme kinetics or from competition with a known ligand.
